Laboratory results reported in patent publication US11040954B1, “CXCR3 receptor agonists” (RECEPTOS LLC, priority 2016, dated 2021).
pEC50: −log10 of the molar value. Read-outs that look alike come from different tables or passages of the source.

Key:
[1] = Mouse pharmacokinetics after oral gavage, plasma drug concentration by LC-MS/MS (C57BL/6); format: in vivo, C57bl/6 mice; conditions: for Cmax / AUC(0-t): mouse, plasma; for AUC(0-t): read-out: AUC0-24
Method: Compounds were formulated in 5% DMSO/5% Tween20 in H2O, sonicated, vortexed, and put on stir plate overnight at a dose volume of 10 mL/kg. Balb/C (Jackson laboratories) or C57bl/6 (Taconic Biosciences) mice (8-9 weeks old) were acclimated to the colony for 3 days prior to dosing. Water and food were provided ab libitum. Compounds were administered by oral gavage. Groups of six animals received 3 to 4 bleeds per day with one terminal bleed. The time points were 30 min, 1 h, 2 h, 4 h, 6 h, 8 h, 24 h. Plasma was collected via centrifugation and analyzed for drug concentrations.
Preparation of Study Samples and Standards for Analysis by LC-MS/MS
50 μl of plasma was aliquoted into a 96 well deep-well polypropylene plate (2 mL) to which 5 μL of DMSO was added. For standards, 5 μl of test compound in DMSO at […] the standard concentration was added to 50 μl of blank matrix in a 96 well deep-well polypropylene plate. For example, for a 300 nM standard, the 10× DMSO concentration was 3 μM. Study samples that require dilution are diluted with the appropriate blank matrix. For example, for a 10× dilution, 5 μL of study sample is added to 45 μl of blank matrix. Protein was precipitated from study samples and standards with the addition of 150 μl of acetonitrile. After a clean plate map was placed firmly over the top of the 96-well plate, a bench top shaker was used for 1 min to ensure complete precipitation of protein. The precipitated protein was pelleted by centrifuging for 3,000 rpm for 10 min at 20° C. and then the clear supernatant was transferred to a clean 96-well plate and spun again under the same conditions in order to pellet any solid material that may have been transferred.
Analysis of Study Samples and Standards with LCMS with MRM Detection
An Agilent 1200 HPLC with binary pump and a Leap CTC with fast wash autosampler were used to introduce samples to the mass spectrometer.
The column used was a Phenomenex Luna C8 30×2 mm 5 μm with a security guard. Mass detection was performed by an Applied Biosystems 4000 Qtrap in MRM mode and ionization was achieved by positive electrospray with a source temperature of 500° C. The ion transitions, […] potential and collision energies were dependent on the specific analyte.
Prepared samples were usually analyzed in reverse chronological order with bracketing standard curves. Typically at least 6 standards were used for quantification with a percent accuracy of +/−15% for all standards except at the LLOQ where a percent accuracy of +/−20% was allowed. The concentration time profile was fit using a one compartment model for the applicable mode of dosing using Phoenix WinNonLin 6.4.

CXCR3 = molecular target: T1, CXCR3 (Homo sapiens, UniProt P49682); assay: CXCR3 cAMP agonist assay (cAMP Hunter CHOK1 CXCR3 Gi cell line, forskolin-stimulated, HitHunter cAMP detection); format: cell-based; conditions: cAMP Hunter CHOK1 CXCR3 Gi cells, 20 μM forskolin, 30 minutes; read-out: Activity (CXCR3 cAMP agonist assay compound EC50)
T1 construct: host or cells: CHO-K1 (cAMP Hunter CHOK1 CXCR3 Gi cell line)
T1 sequence (P49682 1-368): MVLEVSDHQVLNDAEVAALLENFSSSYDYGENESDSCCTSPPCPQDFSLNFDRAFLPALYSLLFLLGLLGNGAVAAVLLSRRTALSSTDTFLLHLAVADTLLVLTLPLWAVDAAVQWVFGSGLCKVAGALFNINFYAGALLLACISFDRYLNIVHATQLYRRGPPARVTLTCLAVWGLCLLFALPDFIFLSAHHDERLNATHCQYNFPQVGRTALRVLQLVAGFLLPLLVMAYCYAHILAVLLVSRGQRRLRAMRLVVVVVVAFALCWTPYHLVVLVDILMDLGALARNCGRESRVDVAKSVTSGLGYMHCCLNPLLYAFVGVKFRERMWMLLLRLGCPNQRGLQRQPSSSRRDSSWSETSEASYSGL
Summary of the method: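 Agonist activity was measured as suppression of forskolin (20 μM)-induced cAMP, read by luminescent enzyme-fragment complementation with a cAMP standard curve and CXCL11 defining full efficacy. Assay used 50,000 CXCR3 Gi CHOK1 cells/well in pH 7.4 HEPES-buffered HBSS with 0.1% BSA, compound 0-10 μM over 12 points, 30 min incubation.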

Cmax ([1]; C57BL/6, 60 mg/kg, female mice) [nM]	pEC50 (CXCR3)	Compound	also measured
600	> 7.30	Cc1cc(NC(=O)[C@H](CCN)NC(=O)[C@@H]2Cc3ccccc3CN2C(=O)CCC(=O)N(C)CC(C)(C)C)ccc1Cl [Compound 12-114]	apparent oral clearance (CL/F) ([1]; C57BL/6, 60 mg/kg, female mice): 823 mL/min/kg; AUC(0-t) ([1]; C57BL/6, 60 mg/kg, female mice): 2.1 µM·h
–	> 7.30	Cc1cc(NC(=O)[C@H](CCCCN)NC(=O)[C@@H]2Cc3ccccc3CN2C(=O)CCC(=O)c2ccccc2)ccc1Cl [Compound 1-14]	Cmax ([1]; C57BL/6, 10 mg/kg, male mice): 6 nM; AUC(0-t) ([1]; C57BL/6, 10 mg/kg, male mice): 0.011 µM·h
3100	> 7.30	Cc1cc(NC(=O)[C@H](CCN)NC(=O)[C@@H]2Cc3ccccc3CN2C(=O)CCC(=O)N2CCCC(C)(C)C2)ccc1Cl [Compound 12-88]	apparent oral clearance (CL/F) ([1]; C57BL/6, 60 mg/kg, female mice): 280 mL/min/kg; AUC(0-t) ([1]; C57BL/6, 60 mg/kg, female mice): 6 µM·h
5100	> 7.30	Cc1c(Cl)cc(NC(=O)[C@H](CCN)NC(=O)[C@@H]2Cc3ccccc3CN2C(=O)CCC(=O)c2ccccc2)cc1Cl [Compound 27-3]	apparent oral clearance (CL/F) ([1]; C57BL/6, 60 mg/kg, female mice): 143 mL/min/kg; AUC(0-t) ([1]; C57BL/6, 60 mg/kg, female mice): 11.7 µM·h
–	6.60 to 7.30	Cc1cc(NC(=O)C2(NC(=O)[C@@H]3Cc4ccccc4CN3C(=O)CCC(=O)c3ccccc3)CCNCC2)ccc1Cl [Compound 4-12]	apparent oral clearance (CL/F) ([1]; C57BL/6, 10 mg/kg, male mice): 32 mL/min/kg; Cmax ([1]; C57BL/6, 10 mg/kg, male mice): 3300 nM; AUC(0-t) ([1]; C57BL/6, 10 mg/kg, male mice): 9 µM·h
1200	> 7.30	Cc1cc(NC(=O)[C@H](CCN)NC(=O)[C@@H]2Cc3ccccc3CN2C(=O)CCC(=O)N2CCCCC2(C)C)c(C#N)cc1Cl [Compound 18-1, (S)—N—((S)-4-amino-1-((4-chloro-2-cyano-5-methylphenyl)amino)-1-oxobutan-2-yl)-2-(4-(2,2-dimethylpiperidin-1-yl)-4-oxobutanoyl)-1,2,3,4-tetrahydroisoquinoline-3-carboxamide]	apparent oral clearance (CL/F) ([1]; C57BL/6, 60 mg/kg, female mice): 565 mL/min/kg; AUC(0-t) ([1]; C57BL/6, 60 mg/kg, female mice): 2.9 µM·h
4300	> 7.30	NCC[C@H](NC(=O)[C@@H]1Cc2ccc(F)cc2CN1C(=O)CCC(=O)c1ccccc1)C(=O)Nc1ccc(Cl)c(Cl)c1F [Compound 27-7]	apparent oral clearance (CL/F) ([1]; C57BL/6, 60 mg/kg, female mice): 92 mL/min/kg; AUC(0-t) ([1]; C57BL/6, 60 mg/kg, female mice): 17.6 µM·h
1500	> 7.30	NCC[C@H](NC(=O)[C@@H]1Cc2ccccc2CN1C(=O)CCC(=O)N1CCCC2(CCC2)C1)C(=O)Nc1ccc2c(c1)CCC2 [Compound 10-8]	apparent oral clearance (CL/F) ([1]; C57BL/6, 60 mg/kg, female mice): 431 mL/min/kg; AUC(0-t) ([1]; C57BL/6, 60 mg/kg, female mice): 3.9 µM·h
5200	> 7.30	Cc1cc(NC(=O)[C@H](CCN)NC(=O)[C@@H]2Cc3ccccc3CN2C(=O)CCC(=O)c2ccccc2)c(OC(F)(F)F)cc1C [Compound 14-28]	apparent oral clearance (CL/F) ([1]; C57BL/6, 60 mg/kg, female mice): 47 mL/min/kg; AUC(0-t) ([1]; C57BL/6, 60 mg/kg, female mice): 33.8 µM·h
3000	> 7.30	CCc1cc(NC(=O)[C@H](CCN)NC(=O)[C@@H]2Cc3ccccc3CN2C(=O)CCC(=O)c2ccccc2)ccc1Cl [Compound 2-55]	apparent oral clearance (CL/F) ([1]; C57BL/6, 60 mg/kg, female mice): 176 mL/min/kg; AUC(0-t) ([1]; C57BL/6, 60 mg/kg, female mice): 9.9 µM·h
–	> 7.30	Cc1c(NC(=O)[C@H](CCN)NC(=O)[C@@H]2Cc3ccccc3CN2C(=O)CCC(=O)c2ccccc2)ccc(Cl)c1Cl [Compound 2-15]	apparent oral clearance (CL/F) ([1]; C57BL/6, 10 mg/kg, male mice): 37 mL/min/kg; Cmax ([1]; C57BL/6, 10 mg/kg, male mice): 970 nM; AUC(0-t) ([1]; C57BL/6, 10 mg/kg, male mice): 7.5 µM·h
2800	> 7.30	NCC[C@H](NC(=O)[C@@H]1Cc2ccccc2CN1C(=O)CCC(=O)N1CCCC12CCC2)C(=O)Nc1ccc(Cl)c(Cl)c1F [Compound 12-152]	apparent oral clearance (CL/F) ([1]; C57BL/6, 60 mg/kg, female mice): 190 mL/min/kg; AUC(0-t) ([1]; C57BL/6, 60 mg/kg, female mice): 8.3 µM·h
370	> 7.30	Cc1cc(NC(=O)[C@H](CCN)NC(=O)[C@@H]2Cc3ccccc3CN2C(=O)CCC(=O)N2CCN(C)C[C@H]2C)ccc1Cl [Compound 12-100]	AUC0-24 ([1]; C57BL/6, 60 mg/kg, female mice): BQL
–	6.60 to 7.30	NCC[C@H](NC(=O)[C@@H]1Cc2ccccc2CN1C(=O)CCC(=O)c1ccccc1)C(=O)Nc1cc(Cl)ccc1C(F)(F)F [Compound 14-14]	–
–	6.60 to 7.30	Cc1cc(NC(=O)[C@](C)(CCCCN)NC(=O)[C@@H]2Cc3ccccc3CN2C(=O)CCC(=O)c2ccccc2)ccc1Cl [Compound 4-10]	–
–	> 7.30	Cc1cc(NC(=O)C2(NC(=O)[C@@H]3Cc4ccccc4CN3C(=O)CCC(=O)c3ccccc3)CCNCC2)c(F)cc1Cl [Compound 11-3]	–
–	> 7.30	NCC[C@H](NC(=O)[C@@H]1Cc2ccc(O)cc2CN1C(=O)CCC(=O)c1ccccc1)C(=O)Nc1ccc(Cl)c(Cl)c1F [Compound 4-20]	–

Cmax ([1]; C57BL/6, 60 mg/kg, female mice) [nM]	pEC50 (CXCR3)	Compound	also measured
–	> 7.30	COC1CCN(C(=O)CCC(=O)N2Cc3ccccc3C[C@H]2C(=O)N[C@@H](CCN)C(=O)Nc2ccc(Cl)c(C)c2)CC1 [Compound 12-42]	–
–	> 7.30	Cc1cc(NC(=O)[C@H](CCN)NC(=O)[C@@H]2Cc3ccccc3CN2C(=O)CCC(=O)N2CCC[C@@H]2CF)ccc1Cl [Compound 12-144]	–
–	6.60 to 7.30	COc1cc(C)ccc1NC(=O)[C@H](CCN)NC(=O)[C@@H]1Cc2ccccc2CN1C(=O)CCC(=O)c1ccccc1 [Compound 1-37]	–
–	6.60 to 7.30	CN(C)[C@H]1CCN(C(=O)CCC(=O)N2Cc3ccccc3C[C@H]2C(=O)N[C@@H](CCN)C(=O)Nc2ccc(Cl)c(Cl)c2F)C1 [Compound 15-30]	–
–	> 7.30	Cc1cc(NC(=O)[C@H](CCNC(=N)N)NC(=O)[C@@H]2Cc3ccccc3CN2C(=O)CCC(=O)c2ccccc2)ccc1Cl [Compound 3-2]	–
–	> 7.30	Cc1cc(NC(=O)[C@H](CCN)NC(=O)[C@@H]2Cc3ccccc3CN2C(=O)CCC(=O)N2CCCCC23CCC3)ccc1Cl [Compound 12-72]	–
–	> 7.30	CC1CN(C(=O)CCC(=O)N2Cc3ccccc3C[C@H]2C(=O)N[C@@H](CCN)C(=O)Nc2ccc(Cl)c(Cl)c2F)CC1C (stereo partly shown) [Compound 15-29]	–
–	6.60 to 7.30	Cc1cccc(NC(=O)C2(NC(=O)[C@@H]3Cc4ccccc4CN3C(=O)CCC(=O)c3ccccc3)CCNCC2)c1F [Compound 13-3]	–
–	> 7.30	CN(C)[C@@H]1CCN(C(=O)CCC(=O)N2Cc3ccccc3C[C@H]2C(=O)N[C@@H](CCN)C(=O)Nc2ccc(Cl)c(Cl)c2F)C1 [Compound 15-31]	–
–	> 7.30	NCC[C@H](NC(=O)[C@@H]1Cc2ccccc2CN1C(=O)CCC(=O)N1CCCCC1C1CCC1)C(=O)Nc1ccc(Cl)c(Cl)c1F (stereo partly shown) [Compound 15-22]	–
–	6.60 to 7.30	CCc1cccc(NC(=O)[C@H](CCN)NC(=O)[C@@H]2Cc3ccccc3CN2C(=O)CCC(=O)c2ccccc2)c1OC [Compound 13-5]	–
–	> 7.30	CCC1CN(C(=O)CCC(=O)N2Cc3ccccc3C[C@H]2C(=O)N[C@@H](CCN)C(=O)Nc2ccc(Cl)c(C)c2)CCN1C (stereo partly shown) [Compound 12-104]	–
–	> 7.30	Cc1cc(NC(=O)[C@H](CCN)NC(=O)[C@@H]2Cc3ccccc3CN2C(=O)CCC(=O)N2CCCC(O)C2)ccc1Cl (stereo partly shown) [Compound 12-62]	–
–	> 7.30	Cc1cc(NC(=O)[C@H](CCN)NC(=O)[C@@H]2Cc3ccccc3CN2C(=O)CCC(=O)N2CCCC2c2ccccc2)ccc1Cl (stereo partly shown) [Compound 12-53]	–
–	6.60 to 7.30	CS(=O)(=O)Oc1ccc2c(c1)CN(C(=O)CCC(=O)c1ccccc1)[C@H](C(=O)N[C@@H](CCN)C(=O)Nc1ccc(Cl)c(Cl)c1F)C2 [Compound 29-1, (S)-3-(((S)-4-amino-1-((3,4-dichloro-2-fluorophenyl)amino)-1-oxobutan-2-yl)carbamoyl)-2-(4-oxo-4-phenylbutanoyl)-1,2,3,4-tetrahydroisoquinolin-7-yl methanesulfonate]	–
–	> 7.30	O=C(CCC(=O)N1Cc2ccccc2C[C@H]1C(=O)NC1(C(=O)Nc2ccc3c(c2)CCC3)CCNCC1)c1ccccc1 [Compound 13-1]	–
